The values below come from patent US8680320B2, “Heavy metal binding compounds and their method of use” (Life Technologies Corporation, priority 2006, dated 2014).

Molecules are shown by their SMILES. “Also recorded” adds a separate entry of the source.

In experiment [1] the test system is intracellular Pb or Cd ions in 3T3 cells. Nature of the experiment: Compound 12 on 3T3 cells with PbCl2 or CdCl2, then TPEN chelation. The format is cell-based. To be noted: 400 nM Compound 12, 1 μM ionomycin. The method, then:
500 nM, 250 nM and 125 nM of PbCl2 and at concentration range 100 uM, 50 μM and 25 μM of CdCl2.
After fluorescence acquisition, TPEN, a cell-permeant heavy metal chelator, was added to the samples.

Experiment [2] in a line: Fluorescence titration of cadmium ions in cuvettes. The conditions noted are these: 50 mM MOPS pH 7, metal titrated up to 100 μM. The format is binding. The method, then:
A dye stock (709 μM) solution of Compound 10 was prepared in DMSO. Lead, cadmium and mercury solutions from 0-100 μM were prepared in disposable cuvettes by diluting a 100 μM metal stock solutions to a final volume of 2 mL with 50 mM MOPS (pH7). The 100 μM metal stocks were also in 50 mM MOPS (pH7). For the cadmium titration, dye stock was added to give a final concentration of 0.35 μM. For the lead and mercury titrations, dye stock was added to give a final concentration of 1.42 μM. Samples were excited at 492 nm and fluorescence was recorded at 517 nm. […] See, FIG. 2.
The experiment was performed as described above except that the exact dye concentrations were unknown. Sample was dissolved in DMSO and diluted 2× in nano-pure H2O before running. Ex./Em. 549/577 nm. […] See, FIG. 1.
The experiment was performed as described above for cadmium ion detection except that the exact dye concentrations were unknown. Ex./Em. 348/397/481 nm (ratiometric).

Turning to `c1ccc(CN(CCN(Cc2ccccn2)Cc2ccccn2)Cc2ccccn2)nc1` [TPEN, tetrakis-(2-pyridylmethyl)ethylenediamine], the “Change of Compound 12 fluorescence after addition of the chelator” value in experiment [1] is given as “drop of fluorescence after TPEN addition; also recorded: drop in fluorescence from the viable cells”. By Kd is commonly meant the equilibrium constant for the complex coming apart. The low end stands for higher affinity, the high end for lower affinity. Regarding `O=C(O)COc1ccccc1OCCOc1cc(-c2cc3ccc(C(=O)O)cc3[nH]2)ccc1N(CC(=O)O)CC(=O)O` [Compound 18], the Kd in experiment [2] came out at 1200 nM.
